Several values for one entry are separate records, joined by “and”; a condition that tells them apart may be missing. Identical values can stand only once. Inconclusive results and toxic doses are left out.

This assay relates to CD2F1 mice, L1210 leukemia ip, survival T/C. Kind of assay: NCI In Vivo Anticancer Drug Screen. Data for tumor model L1210 Leukemia (intraperitoneal) in CD2F1 (CDF1) mice. Particulars: higher = longer survival. Put shortly:
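Compound-dosed mice with transplantable tumor versus matched vehicle controls; endpoint ratio T/C reported.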

Where [1] appears, read: endpoint: mean survival time, dose: 100.0 mg/kg/injection, schedule: Q01DX009 (ip), vehicle: saline with Tween-80.
[2] abbreviates: endpoint: mean survival time, dose: 100.0 mg/kg/injection, schedule: Q04DX003 (ip), vehicle: saline with Tween-80.
The mark [3] stands for this setting: endpoint: mean survival time, dose: 200.0 mg/kg/injection, schedule: Q01DX009 (ip), vehicle: saline with Tween-80.
Where [4] appears, read: endpoint: mean survival time, dose: 200.0 mg/kg/injection, schedule: Q04DX003 (ip), vehicle: saline with Tween-80.
The mark [5] stands for this setting: endpoint: mean survival time, dose: 400.0 mg/kg/injection, schedule: Q01DX009 (ip), vehicle: saline with Tween-80.
Where [6] appears, read: endpoint: mean survival time, dose: 400.0 mg/kg/injection, schedule: Q04DX003 (ip), vehicle: saline with Tween-80.
Where [7] appears, read: endpoint: mean survival time, dose: 100.0 mg/kg/injection, schedule: Q01DX009 (ip), vehicle: Klucel (hydroxypropylcellulose) (HPC).
The mark [8] stands for this setting: endpoint: mean survival time, dose: 200.0 mg/kg/injection, schedule: Q01DX009 (ip), vehicle: Klucel (hydroxypropylcellulose) (HPC).
Where [9] appears, read: endpoint: mean survival time, dose: 400.0 mg/kg/injection, schedule: Q01DX009 (ip), vehicle: Klucel (hydroxypropylcellulose) (HPC).
Setting [10] is: endpoint: median survival time, dose: 3.12 mg/kg/injection, schedule: Q04DX003 (ip), vehicle: saline with Tween-80.
[11] abbreviates: endpoint: median survival time, dose: 6.25 mg/kg/injection, schedule: Q04DX003 (ip), vehicle: saline with Tween-80.
Where [12] appears, read: endpoint: mean survival time, dose: 75.0 mg/kg/injection, schedule: Q01DX001 (ip), vehicle: saline.

Turning to `O=C1/C(=C/c2ccccc2[N+](=O)[O-])Cc2ccccc21`, the T/C runs as follows: (endpoint: mean survival time, dose: 100.0 mg/kg/injection, schedule: Q04DX003 (ip), vehicle: Klucel (hydroxypropylcellulose) (HPC)) 100 % of control; (endpoint: mean survival time, dose: 200.0 mg/kg/injection, schedule: Q04DX003 (ip), vehicle: Klucel (hydroxypropylcellulose) (HPC)) 100 % of control; (endpoint: mean survival time, dose: 400.0 mg/kg/injection, schedule: Q04DX003 (ip), vehicle: Klucel (hydroxypropylcellulose) (HPC)) 103 % of control.
`Cc1[nH]c2ccccc2c1C(=O)C(N)=O`: the T/C by setting is: under setting [1], 100 % of control; under setting [2], 92 % of control; under setting [3], 97 % of control; under setting [4], 86 % of control; under setting [5], 95 % of control; under setting [6], 92 % of control.
With `O=C(O)C(O)C(O)C1[O][Sb][O]C1C(=O)O` (stereo not given), the T/C was 93 % of control (endpoint: median survival time, dose: 6.25 mg/kg/injection, schedule: Q01DX009 (ip), vehicle: saline); 102 % of control (endpoint: median survival time, dose: 12.5 mg/kg/injection, schedule: Q01DX009 (ip), vehicle: saline); 95 % of control (endpoint: median survival time, dose: 25.0 mg/kg/injection, schedule: Q01DX009 (ip), vehicle: saline); 98 % of control (endpoint: median survival time, dose: 50.0 mg/kg/injection, schedule: Q01DX009 (ip), vehicle: saline).
For `CC(C)(C)CC(C)(C)c1ccc(OCCOc2ccc(C(=O)Nc3ccc(S(=O)(=O)Oc4ccccc4)cc3)cc2[N+](=O)[O-])cc1`, the T/C under setting [7] is 101 % of control; the T/C under setting [2] is 98 % of control; the T/C under setting [8] was 106 % of control; the T/C under setting [4] was 93 % of control; the T/C under setting [9] is 95 % of control; the T/C under setting [6] was 92 % of control.
As to `CN1C(=O)C2C3CCC(C)(O3)C2C1=O` (stereo not given), the T/C is 98 % of control under setting [2], 96 % of control under setting [4] and 98 % of control under setting [6].
Turning to `NP(=O)(OCCC(=O)OCc1ccccc1)N(CCCl)CCCl` (stereo not given), the T/C (endpoint: mean survival time, dose: 25.0 mg/kg/injection, schedule: Q01DX009 (ip), vehicle: Klucel (hydroxypropylcellulose) (HPC)) was 97 % of control; the T/C (endpoint: mean survival time, dose: 50.0 mg/kg/injection, schedule: Q01DX009 (ip), vehicle: Klucel (hydroxypropylcellulose) (HPC)) was 92 % of control; the T/C under setting [7] is 91 % of control; the T/C (endpoint: mean survival time, dose: 125.0 mg/kg/injection, schedule: Q01DX001 (ip), vehicle: Klucel (hydroxypropylcellulose) (HPC)) is 95 % of control; the T/C under setting [8] is 94 % of control; the T/C (endpoint: mean survival time, dose: 250.0 mg/kg/injection, schedule: Q01DX001 (ip), vehicle: Klucel (hydroxypropylcellulose) (HPC)) was 93 % of control. The T/C reads like this: under setting [9], 97 % of control; (endpoint: mean survival time, dose: 500.0 mg/kg/injection, schedule: Q01DX001 (ip), vehicle: Klucel (hydroxypropylcellulose) (HPC)) 98 % of control; (endpoint: mean survival time, dose: 1000.0 mg/kg/injection, schedule: Q01DX001 (ip), vehicle: Klucel (hydroxypropylcellulose) (HPC)) 95 % of control.
In the case of `CC(C)(C)[Si](C)(C)N1CCCOP1(=O)N(CCCl)CCCl` (stereo not given), the T/C is 98 % of control (endpoint: mean survival time, dose: 15.6 mg/kg/injection, schedule: Q01DX001 (ip), vehicle: distilled water + Tween-80); 102 % of control (endpoint: mean survival time, dose: 31.3 mg/kg/injection, schedule: Q01DX001 (ip), vehicle: distilled water + Tween-80); 96 % of control (endpoint: mean survival time, dose: 62.5 mg/kg/injection, schedule: Q01DX001 (ip), vehicle: distilled water + Tween-80); 108 % of control (endpoint: mean survival time, dose: 125.0 mg/kg/injection, schedule: Q01DX001 (ip), vehicle: distilled water + Tween-80); 101 % of control (endpoint: mean survival time, dose: 250.0 mg/kg/injection, schedule: Q01DX001 (ip), vehicle: distilled water + Tween-80); 104 % of control (endpoint: mean survival time, dose: 500.0 mg/kg/injection, schedule: Q01DX001 (ip), vehicle: distilled water + Tween-80).
As to `CCN1C=C/C(=C/c2cc3scc(-c4ccccc4)[n+]3c3ccccc23)c2ccccc21`, the T/C is 97 % of control (endpoint: mean survival time, dose: 0.01 mg/kg/injection, schedule: Q01DX009 (ip), vehicle: saline); 100 % of control (endpoint: mean survival time, dose: 0.02 mg/kg/injection, schedule: Q01DX009 (ip), vehicle: saline); 103 % of control (endpoint: mean survival time, dose: 0.04 mg/kg/injection, schedule: Q01DX009 (ip), vehicle: saline).
As to `O=C(N/N=C\c1ccc(Cl)cc1)c1ccccc1`, the T/C was 94 % of control (endpoint: mean survival time, dose: 50.0 mg/kg/injection, schedule: Q01DX009 (ip), vehicle: saline with Tween-80); 101 % of control under setting [1]; 95 % of control under setting [3].
For `NC1CCCCC1N.O=C(Nc1ccc2c(O)cc(S(=O)(=O)[O-])cc2c1)c1ccccc1.O=C(Nc1ccc2c(O)cc(S(=O)(=O)[O-])cc2c1)c1ccccc1.[Pt+4]`, the T/C reads like this: (endpoint: median survival time, dose: 1.56 mg/kg/injection, schedule: Q04DX003 (ip), vehicle: saline with Tween-80) 166 % of control; under setting [10], 204 % of control and 344 % of control; under setting [11], 289 % of control and 344 % of control; (endpoint: median survival time, dose: 12.5 mg/kg/injection, schedule: Q04DX003 (ip), vehicle: saline with Tween-80) 289 % of control; (endpoint: median survival time, dose: 25.0 mg/kg/injection, schedule: Q04DX003 (ip), vehicle: saline with Tween-80) 91 % of control.
With `Cc1nc(N)nc2c1CCC(O)S2` (stereo not given), the T/C was 96 % of control (endpoint: mean survival time, dose: 25.0 mg/kg/injection, schedule: Q01DX001 (ip), vehicle: Klucel (hydroxypropylcellulose) (HPC)); 96 % of control (endpoint: mean survival time, dose: 50.0 mg/kg/injection, schedule: Q01DX001 (ip), vehicle: Klucel (hydroxypropylcellulose) (HPC)); 96 % of control (endpoint: mean survival time, dose: 100.0 mg/kg/injection, schedule: Q01DX001 (ip), vehicle: Klucel (hydroxypropylcellulose) (HPC)).
For `O=[N+]([O-])c1cccc(/C=C/C=C/c2cccc(S(=O)(=O)F)c2)c1`, the T/C under setting [1] was 100 % of control; the T/C under setting [2] is 93 % of control; the T/C under setting [3] is 93 % of control; the T/C under setting [4] was 96 % of control; the T/C under setting [5] was 95 % of control; the T/C under setting [6] was 90 % of control.
Take `CCOC(=O)Nc1ccc(F)cc1C`: the T/C under setting [2] is 97 % of control, the T/C under setting [4] is 97 % of control and the T/C under setting [6] is 95 % of control.
As for `CCOP(=S)(N1CC1)N1CC1`, the T/C is 94 % of control (endpoint: mean survival time, dose: 100.0 mg/kg/injection, schedule: Q01DX009 (ip), vehicle: other); 100 % of control (endpoint: mean survival time, dose: 200.0 mg/kg/injection, schedule: Q01DX009 (ip), vehicle: other); 90 % of control (endpoint: mean survival time, dose: 400.0 mg/kg/injection, schedule: Q01DX009 (ip), vehicle: other).
Consider `NC1CCCCC1N.O=C1C=CC(=C(c2ccc(O)cc2)c2ccccc2S(=O)(=O)[O-])C=C1.O=[N+]([O-])[O-].[Pt+4]`, for which the T/C is 170 % of control (endpoint: median survival time, dose: 1.56 mg/kg/injection, schedule: Q04DX003 (ip), vehicle: saline); 361 % of control under setting [10]; 353 % of control (endpoint: median survival time, dose: 3.12 mg/kg/injection, schedule: Q04DX003 (ip), vehicle: saline); 361 % of control under setting [11]; 243 % of control (endpoint: median survival time, dose: 6.25 mg/kg/injection, schedule: Q04DX003 (ip), vehicle: saline); 365 % of control (endpoint: median survival time, dose: 12.5 mg/kg/injection, schedule: Q04DX003 (ip), vehicle: saline).
For the compound `C[n+]1ccc2c(Br)cccc2c1`, the T/C under setting [12] is 101 % of control.
With `CC(=O)C1=C2c3ccccc3C(=O)c3c(Br)cc(S(=O)(=O)O)c(c32)NC1`, the T/C is, setting by setting: (endpoint: mean survival time, dose: 100.0 mg/kg/injection, schedule: Q01DX001 (ip), vehicle: saline with Tween-80) 94 % of control; (endpoint: mean survival time, dose: 200.0 mg/kg/injection, schedule: Q01DX001 (ip), vehicle: saline with Tween-80) 94 % of control; (endpoint: mean survival time, dose: 400.0 mg/kg/injection, schedule: Q01DX001 (ip), vehicle: saline with Tween-80) 90 % of control.
For `O=c1c(-c2ccccc2)c1-c1ccccc1`, the T/C under setting [2] was 93 % of control.
For the compound `Cc1cc(C)c(S(=O)O)c(C)c1`, the T/C (endpoint: mean survival time, dose: 100.0 mg/kg/injection, schedule: Q01DX001 (ip), vehicle: saline) is 103 % of control; the T/C (endpoint: mean survival time, dose: 200.0 mg/kg/injection, schedule: Q01DX001 (ip), vehicle: saline) was 103 % of control; the T/C (endpoint: mean survival time, dose: 400.0 mg/kg/injection, schedule: Q01DX001 (ip), vehicle: saline) was 103 % of control.
Consider `CN(C)c1ccc(C(=C(c2ccc(N(C)C)cc2)c2ccc(N(C)C)cc2)c2ccc(N(C)C)cc2)cc1`, for which the T/C under setting [12] is 106 % of control.
Consider `CSc1nc(NN)n2nccc2n1`, for which the T/C (endpoint: median survival time, dose: 50.0 mg/kg/injection, schedule: Q01DX005 (ip), vehicle: saline) was 104 % of control and the T/C (endpoint: median survival time, dose: 100.0 mg/kg/injection, schedule: Q01DX005 (ip), vehicle: saline) is 103 % of control.

For the origin of these results see PubChem BioAssay AID256 (DTP/NCI, 2004).
